Source: US20250230193A1, “CYCLIC COMPOUND HAVING SELECTIVE KRAS INHIBITORY EFFECT ON HRAS AND NRAS” (CHUGAI SEIYAKU KABUSHIKI KAISHA, priority 2022, published 2025)
Where a SMILES comes first, the peptide text is derived from it. Bridges are numbered along the chain shown (N, C = ends). [ ]: non-standard residue; d: D form. The star is where a group is joined. hPhe(3-Cl-4-CF3) = N[C@@H](CCc1ccc(C(F)(F)F)c(Cl)c1)C(=O)O; NPrPhe(4-CF3) = CCCN[C@@H](Cc1ccc(C(F)(F)F)cc1)C(=O)O; NMeGly(cPent) = CN[C@H](C(=O)O)C1CCCC1; NMeChg = CN[C@H](C(=O)O)C1CCCCC1; NMeI = CC[C@H](C)[C@H](NC)C(=O)O; NMeD = CN[C@@H](CC(=O)O)C(=O)O; Ac4c(3-oxa) = NC1(C(=O)O)COC1; NMeL = CN[C@@H](CC(C)C)C(=O)O; Morpholide = C1CN(*)CCO1; Piperidide = C1CCN(*)CC1; Ac5c = NC1(C(=O)O)CCCC1; Ac4c = NC1(C(=O)O)CCC1; Sar = CNCC(=O)O

Experiments:
[1] = target: GDP-bound HRAS wild-type protein (Homo sapiens, UniProt P01112); assay: Binding to HRAS by surface plasmon resonance (SPR), Single Cycle Kinetics; conditions: KD ratio, GDP-bound HRAS wild-type vs GDP-bound KRAS wild-type, SPR
Chain of GDP-bound HRAS wild-type protein (P01112 whole entry): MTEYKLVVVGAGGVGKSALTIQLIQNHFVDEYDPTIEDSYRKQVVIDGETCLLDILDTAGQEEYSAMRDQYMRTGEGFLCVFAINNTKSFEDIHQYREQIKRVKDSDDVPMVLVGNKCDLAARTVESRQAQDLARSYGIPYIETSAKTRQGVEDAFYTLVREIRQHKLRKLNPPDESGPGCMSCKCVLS

[2] = target: GDP-bound NRAS wild-type protein (Homo sapiens, UniProt P01111); assay: Binding to NRAS by surface plasmon resonance (SPR), Single Cycle Kinetics; conditions: KD ratio, GDP-bound NRAS wild-type vs GDP-bound KRAS wild-type, SPR
Chain of GDP-bound NRAS wild-type protein (P01111 whole entry): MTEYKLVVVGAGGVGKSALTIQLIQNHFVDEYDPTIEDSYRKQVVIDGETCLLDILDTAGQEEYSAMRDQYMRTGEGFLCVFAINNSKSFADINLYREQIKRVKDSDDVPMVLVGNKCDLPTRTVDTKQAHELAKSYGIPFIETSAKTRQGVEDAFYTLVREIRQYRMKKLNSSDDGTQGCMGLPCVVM

Question: Which results are given for `CCCN1C(=O)CN(C)C(=O)CN(C)C(=O)[C@H]([C@@H](C)CC)NC(=O)[C@H](CC(C)C)N(C)C(=O)C[C@@H](C(=O)N2CCOCC2)N(C)C(=O)[C@H](C2CCCC2)N(C)C(=O)C2(COC2)NC(=O)[C@@H]2CCCN2C(=O)[C@H](CCc2ccc(C(F)(F)F)c(Cl)c2)NC(=O)CN(C)C(=O)[C@@H]1Cc1ccc(C(F)(F)F)cc1` [PP1922] ([NMeL]I[Sar][Sar][NPrPhe(4-CF3)][Sar][hPhe(3-Cl-4-CF3)]P[Ac4c(3-oxa)][NMeGly(cPent)][NMeD]-Morpholide; lactam N-11)?
Answer: HRAS/KRAS (ratio of KD value for HRAS to KD value for KRAS) [1]: C (A compound having a KD ratio of 0.1 or more and less than 3 is denoted as C); NRAS/KRAS (ratio of KD value for NRAS to KD value for KRAS) [2]: B (a compound having 3 or more and less than 10 is denoted as B)

Question: Which results are given for `CCCN(C)C(=O)[C@@H]1CC(=O)N(C)[C@@H](CC(C)C)C(=O)N[C@@H](C2CCOCC2)C(=O)N(C)CC(=O)N(C)[C@H]2C/C=C\CCN(C2=O)[C@@H](Cc2ccc(C(F)(F)F)cc2)C(=O)N(C)CC(=O)N[C@@H](CCc2cc(F)c(C(F)(F)F)c(F)c2)C(=O)N2C[C@H](OCC)C[C@H]2C(=O)NC2(CC(C)(C)C2)C(=O)N(C)[C@@H](C2CCCC2)C(=O)N1C` [PP1923]?
Answer: HRAS/KRAS (ratio of KD value for HRAS to KD value for KRAS) [1]: A (a compound having 10 or more and less than 20 is denoted as A); NRAS/KRAS (ratio of KD value for NRAS to KD value for KRAS) [2]: A (a compound having 10 or more and less than 20 is denoted as A)

Question: `CCC[C@H]1C(=O)N[C@@H]([C@@H](C)CC)C(=O)N2CC[C@H]2C(=O)N(C)[C@H]2C/C=C\CCN(C2=O)[C@@H](Cc2ccc(C(F)(F)F)cc2)C(=O)N(C)CC(=O)N[C@@H](CCc2cc(F)c(C(F)(F)F)c(F)c2)C(=O)N2C[C@H](OCC)C[C@H]2C(=O)NC2(CC(C)(C)C2)C(=O)N(C)[C@@H](C2CCCC2)C(=O)N(C)[C@H](C(=O)N(C)C)CC(=O)N1C` [PP1925] was tested. Which “HRAS/KRAS (ratio of KD value for HRAS to KD value for KRAS)” value [1] did it give?
Answer: A (a compound having 10 or more and less than 20 is denoted as A)

Question: And the “NRAS/KRAS (ratio of KD value for NRAS to KD value for KRAS)” value [2]?
Answer: A (a compound having 10 or more and less than 20 is denoted as A)

Question: Which “HRAS/KRAS (ratio of KD value for HRAS to KD value for KRAS)” value [1] does the source give for `CCCN1C(=O)CN(C)C(=O)CN(C)C(=O)[C@H]([C@@H](C)CC)NC(=O)[C@H](CC(C)C)N(C)C(=O)C[C@@H](C(=O)N2CCOCC2)N(C)C(=O)[C@H]([C@@H](C)CC)N(C)C(=O)C2(CCCC2)NC(=O)[C@@H]2CCCN2C(=O)[C@H](CCc2ccc(C(F)(F)F)c(Cl)c2)NC(=O)CN(C)C(=O)[C@@H]1Cc1ccc(C(F)(F)F)cc1` [PP1926] ([NMeL]I[Sar][Sar][NPrPhe(4-CF3)][Sar][hPhe(3-Cl-4-CF3)]P[Ac5c][NMeI][NMeD]-Morpholide; lactam N-11) here?
Answer: B (a compound having 3 or more and less than 10 is denoted as B)

Question: What about the “NRAS/KRAS (ratio of KD value for NRAS to KD value for KRAS)” value [2] of the same molecule?
Answer: B (a compound having 3 or more and less than 10 is denoted as B)

Question: Which “HRAS/KRAS (ratio of KD value for HRAS to KD value for KRAS)” value [1] does the source give for `CCC[C@H]1C(=O)N[C@@H]([C@@H](C)CC)C(=O)N[C@@H](C)C(=O)N(C)[C@H]2C/C=C\CCN(C2=O)[C@@H](Cc2ccc(C(F)(F)F)cc2)C(=O)N(C)CC(=O)N[C@@H](CCc2cc(F)c(C(F)(F)F)c(F)c2)C(=O)N2C[C@H](OCC)C[C@H]2C(=O)NC2(CC(C)(C)C2)C(=O)N(C)[C@@H](C2CCCC2)C(=O)N(C)[C@H](C(=O)N(C)C)CC(=O)N1C` [PP1927] here?
Answer: A (a compound having 10 or more and less than 20 is denoted as A)

Question: And the “NRAS/KRAS (ratio of KD value for NRAS to KD value for KRAS)” value [2]?
Answer: A (a compound having 10 or more and less than 20 is denoted as A)

Question: What does the source list for `CCCN1C(=O)CN(C)C(=O)CN(C)C(=O)[C@H]([C@@H](C)CC)NC(=O)[C@H](CC(C)C)N(C)C(=O)C[C@@H](C(=O)N2CCOCC2)N(C)C(=O)[C@H](C2CCCCC2)N(C)C(=O)C2(CCC2)NC(=O)[C@@H]2CCCN2C(=O)[C@H](CCc2ccc(C(F)(F)F)c(Cl)c2)NC(=O)CN(C)C(=O)[C@@H]1Cc1ccc(C(F)(F)F)cc1` [PP1928] ([NMeL]I[Sar][Sar][NPrPhe(4-CF3)][Sar][hPhe(3-Cl-4-CF3)]P[Ac4c][NMeChg][NMeD]-Morpholide; lactam N-11)?
Answer: HRAS/KRAS (ratio of KD value for HRAS to KD value for KRAS) [1]: B (a compound having 3 or more and less than 10 is denoted as B); NRAS/KRAS (ratio of KD value for NRAS to KD value for KRAS) [2]: B (a compound having 3 or more and less than 10 is denoted as B)

Question: Which “HRAS/KRAS (ratio of KD value for HRAS to KD value for KRAS)” value [1] does the source give for `CCCN1C(=O)CN(C)C(=O)CN(C)C(=O)[C@H]([C@@H](C)CC)NC(=O)[C@H](CC(C)C)N(C)C(=O)C[C@@H](C(=O)N2CCCCC2)N(C)C(=O)[C@H](C2CCCC2)N(C)C(=O)C2(CCC2)NC(=O)[C@@H]2CCCN2C(=O)[C@H](CCc2ccc(C(F)(F)F)c(Cl)c2)NC(=O)CN(C)C(=O)[C@@H]1Cc1ccc(C(F)(F)F)cc1` [PP1930] ([NMeL]I[Sar][Sar][NPrPhe(4-CF3)][Sar][hPhe(3-Cl-4-CF3)]P[Ac4c][NMeGly(cPent)][NMeD]-Piperidide; lactam N-11) here?
Answer: C (A compound having a KD ratio of 0.1 or more and less than 3 is denoted as C)

Question: What about the “NRAS/KRAS (ratio of KD value for NRAS to KD value for KRAS)” value [2] of the same molecule?
Answer: B (a compound having 3 or more and less than 10 is denoted as B)

Question: For `CCO[C@@H]1C[C@H]2C(=O)NC3(CC(C)(C)C3)C(=O)N(C)[C@@H](C3CCCC3)C(=O)N(C)[C@H](C(=O)N(C)C)CC(=O)N(C)[C@@H](CC(C)C)C(=O)N[C@@H]([C@@H](C)CC)C(=O)N(C)CC(=O)N(C)[C@H]3C/C=C\CCN(C3=O)[C@@H](Cc3ccc(C(F)(F)F)cc3)C(=O)N(C)CC(=O)N[C@@H](CCc3ccc(C(F)(F)F)c(F)c3)C(=O)N2C1` [PP1931], which “HRAS/KRAS (ratio of KD value for HRAS to KD value for KRAS)” value [1] is on record?
Answer: B (a compound having 3 or more and less than 10 is denoted as B)

Question: And the “NRAS/KRAS (ratio of KD value for NRAS to KD value for KRAS)” value [2]?
Answer: A (a compound having 10 or more and less than 20 is denoted as A)

Question: Which results are given for `CCC[C@H]1C(=O)N[C@@H]([C@@H](C)CC)C(=O)N(C)CC(=O)N(C)[C@H]2C/C=C\CCN(C2=O)[C@@H](Cc2ccc(C(F)(F)F)cc2)C(=O)N(C)CC(=O)N[C@@H](CCc2ccc(Cl)c(Cl)c2)C(=O)N2C[C@H](OCC)C[C@H]2C(=O)NC2(CC(C)(C)C2)C(=O)N(C)[C@@H](C2CCCC2)C(=O)N(C)[C@H](C(=O)N(C)C)CC(=O)N1C` [PP1932]?
Answer: HRAS/KRAS (ratio of KD value for HRAS to KD value for KRAS) [1]: A (a compound having 10 or more and less than 20 is denoted as A); NRAS/KRAS (ratio of KD value for NRAS to KD value for KRAS) [2]: A (a compound having 10 or more and less than 20 is denoted as A)

Question: `CCC[C@H]1C(=O)N[C@@H]([C@@H](C)CC)C(=O)N(C)CC(=O)N(C)[C@H]2C/C=C\CCN(C2=O)[C@@H](Cc2ccc(C(F)(F)F)cc2)C(=O)N(C)CC(=O)N[C@@H](CCc2cc(F)c(C(F)(F)F)c(F)c2)C(=O)N(C)[C@@H](C)C(=O)NC2(CC(C)(C)C2)C(=O)N(C)[C@@H](C2CCCC2)C(=O)N(C)[C@H](C(=O)N(C)C)CC(=O)N1C` [PP1934] was tested. Which “HRAS/KRAS (ratio of KD value for HRAS to KD value for KRAS)” value [1] did it give?
Answer: A (a compound having 10 or more and less than 20 is denoted as A)

Question: And the “NRAS/KRAS (ratio of KD value for NRAS to KD value for KRAS)” value [2]?
Answer: A (a compound having 10 or more and less than 20 is denoted as A)

Question: `CC[C@H](C)[C@@H]1NC(=O)[C@H](CC)N(C)C(=O)C[C@@H](C(=O)N(C)C)N(C)C(=O)[C@H](C2CCCC2)N(C)C(=O)C2(CC(C)(C)C2)NC(=O)[C@H](CC)N(C)C(=O)[C@H](CCc2cc(F)c(C(F)(F)F)c(F)c2)NC(=O)CN(C)C(=O)[C@H](Cc2ccc(C(F)(F)F)cc2)N2CC/C=C\C[C@@H](C2=O)N(C)C(=O)CN(C)C1=O` [PP1935] was tested. Which “HRAS/KRAS (ratio of KD value for HRAS to KD value for KRAS)” value [1] did it give?
Answer: A (a compound having 10 or more and less than 20 is denoted as A)

Question: What about the “NRAS/KRAS (ratio of KD value for NRAS to KD value for KRAS)” value [2] of the same molecule?
Answer: A (a compound having 10 or more and less than 20 is denoted as A)
